From the NIST ThermoML archive (doi:10.1016/j.tca.2005.10.007)

Assay: xn = mol fraction of the nth substance listed
Settings: 101 kPa, Liquid, Vibrating tube method

CC(O)CN (configuration not stated) [1-amino-2-propanol] + O
mass density [kg/m3]
Settings	283.15 K	288.15 K	293.15 K	298.15 K	303.15 K	308.15 K	313.15 K	318.15 K
x2 = 0.0438	970.22	966.31	962.38	958.41	954.42	950.39	946.34	942.26
x2 = 0.0801	971.77	967.87	963.94	959.99	956.01	952	947.96	943.89
x2 = 0.1269	974.08	970.22	966.31	962.38	958.41	954.42	950.39	946.33
x2 = 0.1584	975.52	971.66	967.77	963.84	959.89	955.9	951.88	947.83
x2 = 0.2003	977.67	973.82	969.94	966.03	962.09	958.11	954.1	950.06
x2 = 0.2999	983.38	979.58	975.73	971.85	967.94	963.99	960	955.98
x2 = 0.3498	986.51	982.72	978.89	975.02	971.12	967.18	963.21	959.19
x2 = 0.3999	989.63	985.84	982.02	978.16	974.27	970.34	966.36	962.35
x2 = 0.4499	993.04	989.26	985.45	981.59	977.71	973.78	969.81	965.8
x2 = 0.4968	996.4	992.66	988.85	985	981.12	977.19	973.23	969.22
x2 = 0.5122	997.62	993.86	990.05	986.21	982.33	978.4	974.44	–
x2 = 0.5501	1000.3	996.55	992.74	988.89	985.01	981.09	977.12	–
x2 = 0.6001	1004.18	1000.45	996.65	992.81	988.93	985.01	981.05	–
x2 = 0.6501	1007.83	1004.09	1000.3	996.47	992.61	988.7	984.75	–
x2 = 0.7	1011.17	1007.46	1003.71	999.92	996.09	992.22	988.3	–
x2 = 0.7501	1013.81	1010.2	1006.54	1002.84	999.1	995.31	991.48	–
x2 = 0.8	1014.93	1011.54	1008.08	1004.58	1001.02	997.41	993.74	–
x2 = 0.84	1014.28	1011.22	1008.08	1004.86	1001.58	998.22	994.79	–
x2 = 0.88	1011.59	1009.04	1006.38	1003.61	1000.73	997.76	994.67	–
x2 = 0.92	1007.29	1005.41	1003.37	1001.17	998.83	996.33	993.7	–
x2 = 0.96	1002.39	1001.24	999.86	998.26	996.47	994.49	992.33	–
